The values below come from patent US7999064B2 (Abbott Medical Optics Inc., priority 2009, dated 2011).

For this data set, the system named is L929 cells. Format: cell-based. On the procedure:
A direct overlay method which has been adopted by the FDA for MPS registration was used to evaluate the cytotoxicity profile of the PQ1 formulations. In this method, previously-soaked contact lenses (in 100 ml of the solutions to simulate overnight soak) were directly overlayed on L929 cells. The cytotoxicity result was evaluated by scoring each culture under a microscope on a relative scale of 0-4.

The substance Polyquaternium-1 [30K PQ1] displayed a cytotoxicity score of 2.
